Activity calls are given as the source filed them. No rule for the calls is given here.
System: Saccharomyces cerevisiae lifespan extension, no nicotinamide
Test: yeast lifespan extension without nicotinamide, confirmation, yeast lifespan extension project, S. cerevisiae (AID 812);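 also: growth read as optical density after 42 hours of incubation at 30C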

Structure (SMILES)	EC50
O=[N+]([O-])c1cc2oc3c(c2c(C=NCc2ccccc2)c1O)CCCC3	> 40 µM (inactive)
CC(c1ccccc1)N1CCn2c(nc3cc(NC(=O)c4cccs4)ccc32)C1 (stereo not drawn)	> 40 µM (inactive)
CC1=NN(c2ccc(C(F)(F)F)cn2)C(=O)C1	> 40 µM (inactive)
COc1cc(OC)cc(-c2nc3ccccc3c(=O)n2OC(=O)c2ccccc2C)c1	> 40 µM (inactive)
O=S1(=O)C=C(Sc2nc3ccccc3s2)c2ccccc21	> 40 µM (inactive)
CCc1[nH]nc2c1C(c1ccc(Br)s1)C(C#N)=C(N)O2 (stereo not drawn)	> 40 µM (inactive)
COc1cc(/C=C/C(=O)c2c(O)cc(C)oc2=O)cc(OC)c1O	> 40 µM (inactive)
O=S(=O)(CCSc1ccccn1)c1nc2ccccc2s1	> 40 µM (inactive)
Cc1ccnc(-n2c(C)cc(/C=C3\C(=O)NC(=S)N(C)C3=O)c2C)c1	> 40 µM (inactive)
O=C1c2ccccc2NC(c2ccc(Cl)cc2Cl)N1O (stereo not drawn)	> 40 µM (inactive)
O=C(c1cnn2c(C(F)F)cc(C3CC3)nc12)N1CCCC1	> 40 µM (inactive)
CCOC(=O)/C(=C\c1cn(C)c2ccccc12)[N+](=O)[O-]	> 40 µM (inactive)
CCCC[n+]1c(-c2ccc(Cl)cc2Cl)csc1Nc1ccccc1	> 40 µM (inactive)
Cc1cc(C)n2cc(CSc3nnc(N)s3)nc2n1	> 40 µM (inactive)
c1cncc(-c2nn[nH]n2)c1	> 40 µM (inactive)
COc1ccc2c(=O)c3c(=O)n(Cc4ccco4)c(-c4ccc(C)cc4)nc3oc2c1	> 40 µM (inactive)
O=C(Nc1ccc(Br)cn1)c1cccc(-c2cc3ccccc3oc2=O)c1	> 40 µM (inactive)
CN=C(SCc1cc2c(cc1Cl)OCO2)c1c(O)n(C)c(=O)n(C)c1=O	> 40 µM (inactive)
CC(=Nc1ccc2c(c1)nc(CO)n2C)C1=C(O)CC(C)(C)CC1=O	> 40 µM (inactive)
CC1=C(C#N)C2C(/C1=N/O)C2(C)C (stereo not drawn)	> 40 µM (inactive)
Cn1c(=O)c(=O)n(C)c2cc(S(=O)(=O)N3CCN(Cc4ccccc4)CC3)ccc21	> 40 µM (inactive)
O=C(/C=C/c1ccccc1)Nc1ncn[nH]1	> 40 µM (inactive)
COc1cccc(/C=C2\C(=O)N(c3cccc(C)c3)C(=O)c3ccccc32)c1	> 40 µM (inactive)
COC(=O)/C(=C/c1cn(C)c2ccccc12)[N+](=O)[O-]	> 40 µM (inactive)
CCC(=O)Nc1ccccc1Sc1ncnc2scc(-c3ccccc3)c12	> 40 µM (inactive)
COc1cccc(/C=C/C(=O)c2c(O)cc(C)oc2=O)c1O	> 40 µM (inactive)

Structure (SMILES)	EC50
CC1=CS(=O)(=O)CC1Sc1nc2ccccc2[nH]1 (stereo not drawn)	> 40 µM (inactive)
Cc1ccnc(N=Cc2c(O)ccc3oc4c(c23)CCCC4)c1	> 40 µM (inactive)
Cc1ccsc1C(=O)Nc1nnc(-c2ccco2)o1	> 40 µM (inactive)
CCn1c(=O)c2ccccc2n2c(SCC(=O)N3CCCc4ccccc43)nnc12	> 40 µM (inactive)
O=C1CC(c2ccccc2)CC(O)=C1C=NCCN1CCOCC1 (stereo not drawn)	> 40 µM (inactive)
Cc1n[nH]c(=O)n1-c1cccc(C(F)(F)F)c1	> 40 µM (inactive)
CC(=O)C(C(C)=O)c1c(Cl)c(O)c(O)c2c(C(=O)c3ccccc3)coc12	> 40 µM (inactive)
O=Cc1cc2ccccc2nc1SCc1ccc(Cl)cc1	> 40 µM (inactive)
CC(=O)Oc1oc(-c2ccccc2)nc1C=Nc1ccccc1	> 40 µM (inactive)
CSC1=NSC2=NC(=O)/C(=C\c3cccs3)C(=N)N12	> 40 µM (inactive)
Cc1ccc(C(=O)c2no[n+]([O-])c2C(=O)c2ccc(C)cc2)cc1	> 40 µM (inactive)
CCOc1ccc(N=Cc2c(O)c3ccccc3oc2=O)cc1	> 40 µM (inactive)
COC(=O)CCS(=O)(=O)c1nc(-c2ccccc2)cc(C(F)(F)F)n1	> 40 µM (inactive)
Cc1ccccc1Oc1cc(-n2ncc(Cl)c(Cl)c2=O)ncn1	> 40 µM (inactive)
CCSc1nnc(NC(=O)CSc2nc(C)cc(C)n2)s1	> 40 µM (inactive)
CCCCn1c(NS(=O)(=O)c2ccc(C)cc2)c(C(=O)OCC)c2nc3ccccc3nc21	> 40 µM (inactive)
CCOc1ccc(/C=C2/C(=O)NC(=O)N(CCc3ccc(F)cc3)C2=O)cc1	> 40 µM (inactive)
CN(C)c1ccc(S(=O)(=O)c2ccc(Cl)cc2)cc1	> 40 µM (inactive)
CN1CCC2(CC1)C(C#N)=C(N)NC(S)=C2C#N	> 40 µM (inactive)
CC(=O)c1c(O)cc2n(c1=O)-c1ccc(Cl)cc1C2(C)C	> 40 µM (inactive)
N=c1c2c(-c3ccccc3)c(-c3ccccc3)n(Cc3ccco3)c2ncn1CCCn1ccnc1	> 40 µM (inactive)
COc1ccccc1C(=O)Oc1cc(N)n(S(=O)(=O)c2ccc(C)cc2)n1	> 40 µM (inactive)
CC1(C)Oc2ccccc2OC1(O)c1ccc2ccccc2n1 (stereo not drawn)	> 40 µM (inactive)
CC(C)CN=C(NS(=O)(=O)c1ccccc1)C(Cl)(Cl)Cl	> 40 µM (inactive)
Cc1cccc(OC(=O)n2c(=S)oc3cc(Cl)ccc32)c1	> 40 µM (inactive)
O=c1cc(-c2c(F)c(F)c(F)c(F)c2F)oc2c(F)c(F)c(F)c(F)c12	> 40 µM (inactive)

Structure (SMILES)	EC50
CCOC(=O)CS(=O)(=O)c1nc(-c2ccc(F)cc2)cc(C(F)(F)F)n1	> 40 µM (inactive)
CCOC(=O)c1ccccc1N1C(=O)CSC1=S	> 40 µM (inactive)
O=C1C(Cl)=C(Nc2ccccc2O)C(=O)N1CCc1ccccc1	> 40 µM (inactive)
O=C1c2ccccc2C(=O)N1OCc1ccccc1	> 40 µM (inactive)
CC(C)(C)C1CCc2[nH]nc(C(=O)O)c2C1 (stereo not drawn)	> 40 µM (inactive)
COC(=O)C1=C(C(=O)OC)C(c2ccccc2O)c2sc(=O)[nH]c2S1 (stereo not drawn)	> 40 µM (inactive)
COc1ccc(OC)c(NC(=S)N2CCN(C/C=C/c3ccccc3)CC2)c1	> 40 µM (inactive)
O=c1c2[nH]c3ccccc3c2ncn1Cc1ccco1	> 40 µM (inactive)
CCOC(=O)C1=C(N)OC2=C(C(=O)CCC2)C1c1sccc1C (stereo not drawn)	> 40 µM (inactive)
Cn1nnnc1SCCNCC#Cc1ccccc1	> 40 µM (inactive)
O=C1OC2(CCCCC2)OC(=O)C1=CNc1nc2ccccc2s1	> 40 µM (inactive)
CN1OC(c2ccccc2)=C(CO)C1c1ccccc1 (stereo not drawn)	> 40 µM (inactive)
O=C(Oc1ccc([N+](=O)[O-])cc1)c1ccc2ccccc2n1	> 40 µM (inactive)
CCn1ncc(/C=N/NC(=O)c2ccc3c(c2)OCO3)c1C	> 40 µM (inactive)
COC(=O)c1sc(S(=O)(=O)Nc2ccc(Br)cc2)c(C(=O)OC)c1C	> 40 µM (inactive)
CC(C)n1c(-c2ccccc2F)n[nH]c1=S	> 40 µM (inactive)
O=C(NNC1=Nc2cccc3cccc1c23)c1ccccc1Br	> 40 µM (inactive)
COc1cc(C(C[N+](=O)[O-])c2c(-c3ccccc3)cc3ccccn23)cc(OC)c1OC (stereo not drawn)	> 40 µM (inactive)
CC(=NCCc1c(C)[nH]c2ccc(C)cc12)C1=C(O)CC(c2ccccc2)CC1=O (stereo not drawn)	> 40 µM (inactive)
CN1C/C(=C/c2cccnc2)C(=O)/C(=C/c2cccnc2)C1	> 40 µM (inactive)
O=C(Nc1ccc(S(=O)(=O)N2CCc3ccccc3C2)cc1)c1ccccc1	> 40 µM (inactive)
COc1ccc(C(C)NC(=O)c2ccccc2)cc1 (stereo not drawn)	> 40 µM (inactive)
COC(=O)C(=O)/C=C(\O)c1ccc(C)cc1	> 40 µM (inactive)
CCCCC(CC)Cn1c2nc3ccccc3nc2c2c(=N)oc(C)nc21 (stereo not drawn)	> 40 µM (inactive)
CSc1ccc(S(=O)(=O)NCc2ccc(Cl)cc2Cl)cc1	> 40 µM (inactive)
O=c1c2ccccc2sn1-c1ccccc1	> 40 µM (inactive)

Structure (SMILES)	EC50
Oc1ccc(Br)cc1C=Nc1ccc2[nH]ncc2c1	> 40 µM (inactive)
O=C(Cn1nc(Cl)nc1Cl)c1cc2ccccc2oc1=O	> 40 µM (inactive)
NC(=S)N/N=C/c1coc2cc(Cl)ccc2c1=O	> 40 µM (inactive)
O=C(CCl)N1c2ccccc2OCC1c1ccccc1 (stereo not drawn)	> 40 µM (inactive)
CCN1C(=O)C(=Cc2ccc(C)s2)C(=O)N(CC)C1=S	> 40 µM (inactive)
CC(=C1C(=O)c2ccccc2C1=O)N1CCN(C/C=C/c2ccccc2)CC1	> 40 µM (inactive)
CCOc1cc(Br)c(Br)c(C=Nc2ccc(NC(C)=O)cc2)c1O	> 40 µM (inactive)
Cc1ccc(N(C(=O)CS(=O)CC(=O)Nc2ccc(F)cc2)C(C(=O)NC2CCCCC2)c2ccco2)cc1 (stereo not drawn)	> 40 µM (inactive)
O=C1C=CCC(/C=C/c2ccccc2)O1 (stereo not drawn)	> 40 µM (inactive)
COc1cc(/C=C/C(=O)C2C(=O)C=C(C)OC2=O)cc(OC)c1O (stereo not drawn)	> 40 µM (inactive)
Cc1ccc(-c2ccc(/C=C3\C(=O)ON=C3c3ccccc3)o2)c([N+](=O)[O-])c1	> 40 µM (inactive)
CCCC(=O)C1C(=O)CC(CC(C)SCC)CC1=O (stereo not drawn)	> 40 µM (inactive)
O=C(/C=C/c1ccccc1)C1C(=O)c2ccccc2C1=O	> 40 µM (inactive)
Cc1ccc(S(=O)(=O)Nc2ccccc2/C=N/c2nc3ccccc3n2C(C)C)cc1	> 40 µM (inactive)
CC(C)c1nnc(NC(=O)c2c(O)c3cccc4c3n(c2=O)CCC4)s1	> 40 µM (inactive)
Cc1cccc(NC(=O)c2c(O)c3cccc4c3n(c2=O)CCC4)n1	> 40 µM (inactive)
COc1cccc(C(=O)Oc2cc(N)n(S(=O)(=O)c3ccc(C)cc3)n2)c1OC	> 40 µM (inactive)
CCOC(=O)c1nnn(-c2nonc2N)c1CN1CCc2ccccc2C1	> 40 µM (inactive)
COc1ccc(OC)c(C2C(C(C)=O)=C(O)C(=O)N2Cc2cccnc2)c1 (stereo not drawn)	> 40 µM (inactive)
Cc1nn(C(C)(C)C)c(OC(=O)c2ccc(Br)o2)c1Sc1ccccc1	> 40 µM (inactive)
CC(=O)c1c(C)[nH]c(C(=O)OC2CCCCC2=O)c1C (stereo not drawn)	> 40 µM (inactive)
O=C1/C(=C/c2cccnc2)CCC/C1=C\c1cccnc1	> 40 µM (inactive)
Cc1oc2c(c(=O)c1C)C(=O)CC(c1ccccc1)C2 (stereo not drawn)	> 40 µM (inactive)
COc1ccc(-c2cc(C(F)(F)F)nc(S(C)(=O)=O)n2)cc1OC	> 40 µM (inactive)
CC(C)n1c(=O)c2c(O)cc(=O)oc2c2ccccc21	> 40 µM (inactive)

Reference: PubChem BioAssay AID812 (SRMLSC, 2007)
